system: HCV NS5A replicon GT-1a; assay: HCV NS5A replicon anti-viral activity (EC50), dual-reporter Renilla luciferase, GT-1a; format: cell-based; settings: Hepatitis C virus, GT1A, read-out: NS5A Inhibitory Activity (EC50 of GT-1a subtype inhibition)
Text: The autonomous replication level of HCV in liver cells in vitro is very low, and the only animal that can be infected by HCV is chimpanzee, therefore there is no appropriate animal model currently available for preclinical pharmacodynamic study. Some researchers have transplanted human liver tissue infected with HCV in vitro into immune deficient mice to establish an in vivo mice model, but these mice are hard to raise and the model is unstable and short of normal immunologic reaction. Moreover, the model has significant difference with the pathogenic process of hepatitis C, therefore, it has not been used for animal model to assess the action of anti-HCV medicine yet. The progress of the development of anti-viral drugs for the treatment of HCV infection had been very slow because the pathogenic mechanism and life cycle of HCV were unclear before 1999 due to the lack of cell culture system for effective multiplication of HCV. But researchers managed to achieve a breakthrough in 1999 after numerous attempts. An effective cell culture model-replicon system in which HCV is capable of autonomous replication in transfected human hepatic carcinoma cell line Huh-7 had been established in that year on the basis of subgenomic HCV RNA built with genetic engineering.
The above-mentioned cell culture model-replicon system which has been widely accepted in the industry is used in this invention for ex vivo experiments and subsequent assessment of drugs based on the experiment results.
The therapeutic effect of the compounds of this invention on HCV infection can be preliminarily assessed through the following preclinical in vitro inhibitory action test and can be further confirmed in clinical trials. Other methods used in the invention are also quite familiar to professionals in this field with ordinary technical knowledge. Method for testing the anti-viral activity(EC50) in HCV NS5A replicon system: • The viral replication level in infected cells was determined by testing Renilla luciferase with the newly established dual-reporter gene replicon system. There was a good linear relation between the expression level of the reporter gene and the HCV RNA replication level and viral protein expression level. The anti-viral activity was determined for 3 replicates in 3 replicate cells at five(5) 1:2 diluted concentration gradients, with 1 to 2 positive controls. The EC50 of the compounds was calculated in the end.
The compounds of the invention, or their stereoisomers, tautomers, esterified or amidated prodrugs, or pharmaceutically acceptable salts and mixtures have been subjected to test to determined their therapeutic effects in the treatment of HCV infection. […] Moreover, the results of 6a-6ep(Ia), 6fa-6gq(Ib) and reference compounds Ref-1(BMS-790052), Ref-2(GS5885), Ref-3 in HCV-NS5 inhibition test reveal that the cyclopentanyl/hexamethyleneamino radical containing linear polypeptide compounds 6a-6ep, 6fa-6gq and reference compounds Ref-1, Ref-2, Ref-3 have good HCV inhibitory results. […] The replicons GT-1a, GT-lb, GT-2a, GT-3a, GT-4a, GT-5a and GT-6a used for the test are routine replicons commercially available in this field. Table 1: HCV NS5A replicon inhibitory activity test results of compounds (6a-6gq) of the invention

SMILES | EC50 [nM]
CC(C)[C@H](NC(=O)OC(C)(C)C)C(=O)N1C[C@H](OC(=O)N2Cc3cc4c(cc3C2)OCO4)C[C@H]1c1nc(-c2ccc(-c3ccc(-c4cnc([C@@H]5C[C@@H](OC(=O)N6Cc7cc8c(cc7C6)OCO8)CN5C(=O)[C@@H](NC(=O)OC(C)(C)C)C(C)C)[nH]4)cc3)cc2)c[nH]1 [6p] | > 50
COC(=O)N[C@H](C(=O)N1CC2(CC2)C[C@H]1c1nc(-c2ccc3c(c2)C(F)(F)c2cc(-c4ccc5[nH]c([C@@H]6[C@H]7CC[C@H](C7)N6C(=O)[C@@H](NC(=O)OC)C(C)C)nc5c4)ccc2-3)c[nH]1)C(C)C [Ref-2, GS5885, reference compound] | 0.001 to 0.999

same assay, conditions: Hepatitis C virus, GT1A; GT-1a replicon; read-out: NS5A Inhibitory Activity (EC50 of GT-1a subtype inhibition)

SMILES | EC50 [nM]
CC(C)[C@H](NC(=O)OC1CCCC1)C(=O)N1CC=C[C@H]1c1nc(-c2ccc(-c3ccc(-c4cnc([C@@H]5C=CCN5C(=O)[C@@H](NC(=O)OC5CCCC5)C(C)C)[nH]4)cc3)cc2)c[nH]1 [6bf] | > 50
COC(=O)NC(C(=O)N1CCC[C@H]1c1nc(-c2ccc(-c3ccc(-c4c[nH]c([C@@H]5C=CCN5C(=O)[C@@H](NC(=O)OC)C(C)C)n4)cc3)cc2)c[nH]1)c1ccccc1 (stereo partly drawn) [6by] | 0.001 to 0.999
COC(=O)N[C@H](C(=O)N1CCC[C@H]1c1nc2ccc(-c3ccc(-c4ccc5nc([C@@H]6C=CCN6C(=O)[C@H](NC(=O)OC)c6ccccc6)[nH]c5c4)c4c3CC3(CCCCC3)C4)cc2[nH]1)C(C)C [6ep] | 1 to 49.9
COC(=O)N[C@H](C(=O)N1CC=C[C@H]1c1ncc(-c2ccc(-c3ccc(-c4cnc([C@@H]5CCCN5C(=O)[C@@H](NC(=O)N(C)C)C(C)C)[nH]4)cc3)cc2)[nH]1)C(C)C [6df] | 0.001 to 0.999
COC(=O)N[C@H](C(=O)N1CCC[C@H]1c1ncc(-c2ccc(-c3ccc(-c4cnc([C@@H]5C=CCN5C(=O)[C@@H](NC(=O)OC)C5CCCCC5)[nH]4)cc3)cc2)[nH]1)C(C)C [6di] | 0.001 to 0.999
CC(C)[C@H](NC(=O)OC(C)(C)C)C(=O)N1CC=C[C@H]1c1nc(-c2ccc(-c3ccc(-c4cnc([C@@H]5C=CCN5C(=O)[C@@H](NC(=O)OC(C)(C)C)C(C)C)[nH]4)cc3)cc2)c[nH]1 [6be] | 0.001 to 0.999
COC(=O)N[C@H](C(=O)N1CCC[C@H]1c1nc(-c2ccc(-c3ccc(-c4cnc([C@@H]5CC6(CN5C(=O)[C@@H](NC(=O)OC)C(C)C)OCCO6)[nH]4)cc3)cc2)c[nH]1)C(C)C [6ds] | 0.001 to 0.999
COC(=O)NC(C(=O)N1CCC[C@H]1c1ncc(-c2cc3sc(-c4ccc(-c5cnc([C@@H]6CN(C(=O)N7Cc8cc9c(cc8C7)OCO9)CN6C(=O)[C@@H](NC(=O)OC)C(C)C)[nH]5)cc4)cc3s2)[nH]1)c1ccccc1 (stereo partly drawn) [6bw] | 0.001 to 0.999
COC(=O)NC(C(=O)N1CC=C[C@H]1c1nc(-c2ccc(-c3cc4sc(-c5c[nH]c([C@@H]6CCCN6C(=O)C(NC(=O)OC)c6ccccc6)n5)cc4s3)cc2)c[nH]1)c1ccccc1 (stereo partly drawn) [6cc] | > 50
CNC(=O)NC(C(=O)N1CC=C[C@H]1c1ncc(-c2ccc(-c3ccc(-c4cnc([C@@H]5CCCN5C(=O)C(NC(=O)NC)c5ccccc5)[nH]4)cc3)cc2)[nH]1)c1ccccc1 (stereo partly drawn) [6cf] | 0.001 to 0.999
COC(=O)N[C@H](C(=O)N1CCC[C@H]1c1nc2ccc(-c3csc4c(-c5ccc(-c6ccc7nc([C@@H]8C=CCN8C(=O)[C@H](NC(=O)OC)c8ccccc8)[nH]c7c6)cc5)csc34)cc2[nH]1)C(C)C [6gq] | 0.001 to 0.999
COC(=O)N[C@H](C(=O)N1CC=C[C@H]1c1ncc(-c2ccc(-c3ccc(-c4cnc([C@@H]5CC(O)CN5C(=O)[C@@H](NC(=O)OC)C(C)C)[nH]4)cc3)cc2)[nH]1)C(C)C (stereo partly drawn) [6dq] | 0.001 to 0.999
COC(=O)N[C@H](C(=O)N1CCC[C@H]1c1ncc(-c2cc3oc(-c4ccc(-c5cnc([C@@H]6C=CCN6C(=O)[C@H](NC(=O)OC)c6ccccc6)[nH]5)cc4)cc3s2)[nH]1)C(C)C [6fp] | 0.001 to 0.999

same assay, conditions: Hepatitis C virus, genotype 1a / genotype 6a, read-out: Inhibitory activity against various HCV-NS5A subtypes(EC50, GT-1a to GT-6a) GT-1a

SMILES | EC50 [nM]
COC(=O)N[C@H](C(=O)N1CC=C[C@H]1c1ncc(-c2ccc(-c3csc4c(-c5ccc6nc([C@@H]7CCCN7C(=O)[C@@H](NC(=O)OC)C(C)C)[nH]c6c5)csc34)cc2)[nH]1)C(C)C [6gd] | 0.004
COC(=O)N[C@H](C(=O)N1CC2(CC2)C[C@H]1c1nc(-c2ccc3c(c2)C(F)(F)c2cc(-c4ccc5[nH]c([C@@H]6[C@H]7CC[C@H](C7)N6C(=O)[C@@H](NC(=O)OC)C(C)C)nc5c4)ccc2-3)c[nH]1)C(C)C [Ref-2, GS5885, reference compound] | 0.088

same assay, conditions: comparison drawn from Table 2

SMILES | inhibitory activity compared with Ref-1(BMS-790052), Ref-2(GS5885), Ref-3 and Ref-4 (in words)
COC(=O)N[C@H](C(=O)N1CC=C[C@H]1c1ncc(-c2ccc(-c3csc4c(-c5ccc6nc([C@@H]7CCCN7C(=O)[C@@H](NC(=O)OC)C(C)C)[nH]c6c5)csc34)cc2)[nH]1)C(C)C [6gd] | significantly superior
